Experimental findings from patent US20250388565A1, “ESTROGEN RECEPTOR ALPHA DEGRADERS AND METHODS OF USE THEREOF” (Relay Therapeutics, Inc., priority 2022, published 2025) are described below.

By DC50 is commonly meant the midpoint of the concentration-degradation curve.

This test has as its target T1, ERα protein (HiBiT-tagged) in ESR1_HiBiT KI MCF7 cells (Homo sapiens, UniProt P03372).
T1 sequence (P03372 1-595): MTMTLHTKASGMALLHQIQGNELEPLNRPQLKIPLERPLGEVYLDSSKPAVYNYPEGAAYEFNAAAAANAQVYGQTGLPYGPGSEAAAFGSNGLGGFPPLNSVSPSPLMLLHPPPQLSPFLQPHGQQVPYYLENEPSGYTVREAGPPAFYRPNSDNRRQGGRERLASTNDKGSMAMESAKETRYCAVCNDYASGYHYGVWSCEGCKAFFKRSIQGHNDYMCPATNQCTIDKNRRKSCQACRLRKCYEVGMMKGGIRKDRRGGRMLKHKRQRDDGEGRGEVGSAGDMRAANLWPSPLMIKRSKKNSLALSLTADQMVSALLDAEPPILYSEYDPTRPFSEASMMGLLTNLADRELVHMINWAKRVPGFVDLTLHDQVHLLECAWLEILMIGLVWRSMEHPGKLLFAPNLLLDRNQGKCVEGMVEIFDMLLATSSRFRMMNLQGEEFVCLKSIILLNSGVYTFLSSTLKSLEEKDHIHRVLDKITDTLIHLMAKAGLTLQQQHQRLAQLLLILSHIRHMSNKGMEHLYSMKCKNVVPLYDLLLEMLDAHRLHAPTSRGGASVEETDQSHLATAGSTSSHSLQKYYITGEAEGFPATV
The test can be described thus: Nano Glo HiBiT Lytic Degradation Assay. As to conditions: 6 hours with compound, 14-point dose response 1:3, bell-shape curve fit, half-maximal effect of first Hill model, read-out: MCF7 ESR1 HiBiT - (DC50). Format: cell-based. A digest of the protocol: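 ESR1_HiBiT knock-in MCF7 cells were seeded 24 h before treatment, then exposed to compounds for 6 h at 37° C (14-point 1:3 curves, 10 mM top stock, 0.1% DMSO final, duplicates). HiBiT-ERα was read by lytic LgBiT luminescence, background-subtracted and normalized to DMSO. DC50 was taken from the half-maximal point of the first Hill component of a bell-shaped fit.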
A general note: The HiBiT peptide binds its large partner to form an active luciferase.
Take `Cc1cc(N2CCC(CN3CCN(c4ccc5c(c4)CN([C@H]4CCC(=O)NC4=O)C5=O)CC3)CC2)ccc1[C@@H]1c2ccc(O)cc2CC[C@@H]1C1CCCCC1` [Compound I-141, (S)-3-(5-(4-((1-(4-((1R,2R)-2-cyclohexyl-6-hydroxy-1,2,3,4-tetrahydronaphthalen-1-yl)-3-methylphenyl)piperidin-4-yl)methyl)piperazin-1-yl)-1-oxoisoindolin-2-yl)piperidine-2,6-dione]: the DC50 was determined as 2 nM.
As for `O=C1CC[C@H](N2Cc3cc(N4CCN(CC5CCN(c6ccc([C@H]7c8ccc(O)cc8CO[C@H]7C7CC7)cc6)CC5)CC4)ccc3C2=O)C(=O)N1` (single isomer, unassigned) [Compound I-243], the figure is 3 nM; as for `O=C1CC[C@H](N2Cc3cc(N4CCN(CC5CCN(c6ccc([C@@H]7c8ccc(O)cc8CC[C@@]78CCc7ccccc78)cc6)CC5)CC4)ccc3C2=O)C(=O)N1` [Compound I-260], 0.75 nM.
In the case of `O=C1CC[C@H](N2Cc3cc(N4CCN(CCCCCOc5ccc([C@@H]6c7ccc(O)cc7CC[C@@H]6c6ccccc6)cc5)CC4)ccc3C2=O)C(=O)N1` [II-66], the DC50 stood at 0.33 nM.
The same measure for `O=C1CC[C@H](N2Cc3cc(N4CCN(CC5CCN(c6ccc([C@H]7c8ccc(O)cc8CC[C@H]7c7ccccc7)cc6F)CC5)CC4)ccc3C2=O)C(=O)N1` [II-81]: no less than 10000 nM.
As for `O=C1CCC(c2ccc3c(c2)C[C@@H](N2CCN(CC4CCN(c5ccc([C@@H]6c7ccc(O)cc7CC[C@@H]6c6ccccc6)cc5)CC4)CC2)CC3)C(=O)N1` (single isomer, unassigned) [Compound I-422], the figure is 141 nM; as for `O=C1CC[C@@H](N2Cc3cc(N4CCN(CC5CCN(c6ccc([C@@H]7c8ccc(O)cc8C(F)(F)C[C@@H]7c7ccccc7)cc6)CC5)CC4)ccc3C2=O)C(=O)N1` [Compound I-306, (R)-3-(5-(4-((1-(4-((1R,2S)-4,4-difluoro-6-hydroxy-2-phenyl-1,2,3,4-tetrahydronaphthalen-1-yl)phenyl)piperidin-4-yl)methyl)piperazin-1-yl)-1-oxoisoindolin-2-yl)piperidine-2,6-dione], 0.6 nM.
As for `Cc1ccccc1[C@H]1CCc2cc(O)ccc2[C@H]1c1ccc(N2CCC(CN3CCN(c4ccc5c(c4)CN([C@H]4CCC(=O)NC4=O)C5=O)CC3)CC2)cc1` (single isomer, unassigned) [II-34], the figure is 40 nM; as for `Cc1ccccc1[C@@H]1CC(F)(F)c2cc(O)ccc2[C@@H]1c1ccc(N2CCC(CN3CCN(c4ccc5c(c4)CN([C@H]4CCC(=O)NC4=O)C5=O)CC3)CC2)cc1` [Compound I-323, (S)-3-(5-(4-((1-(4-((1S,2R)-4,4-difluoro-6-hydroxy-2-(o-tolyl)-1,2,3,4-tetrahydronaphthalen-1-yl)phenyl)piperidin-4-yl)methyl)piperazin-1-yl)-1-oxoisoindolin-2-yl)piperidine-2,6-dione], 33 nM; as for `O=C1CC[C@H](N2Cc3cc(N4CCN(CC5CCN(c6ccc([C@@H]7c8ccc(O)cc8CO[C@@H]7C7CCC7)cc6)CC5)CC4)ccc3C2=O)C(=O)N1` [Compound I-245, (S)-3-(5-(4-((1-(4-((3R,4R)-3-cyclobutyl-7-hydroxyisochroman-4-yl)phenyl)piperidin-4-yl)methyl)piperazin-1-yl)-1-oxoisoindolin-2-yl)piperidine-2,6-dione], 0.23 nM.
In the case of `Cc1c(F)cccc1[C@H]1OCc2cc(O)ccc2[C@H]1c1ccc(N2CCC(CN3CCN(c4ccc5c(c4)CN([C@H]4CCC(=O)NC4=O)C5=O)CC3)CC2)cc1` (single isomer, unassigned) [Compound I-379], the DC50 is 0.37 nM.
The same measure for `Cc1cc(N2CCC(CN3CCN(c4ccc5c(c4)CN([C@H]4CCC(=O)NC4=O)C5=O)CC3)CC2)ccc1[C@@H]1c2ccc(O)cc2CC[C@@H]1c1ccccc1` [Compound I-139, (S)-3-(5-(4-((1-(4-((1R,2S)-6-hydroxy-2-phenyl-1,2,3,4-tetrahydronaphthalen-1-yl)-3-methylphenyl)piperidin-4-yl)methyl)piperazin-1-yl)-1-oxoisoindolin-2-yl)piperidine-2,6-dione]: 0.76 nM.
